PubChem BioAssay AID1963851 (Molecular Pharmacology Branch, DTP, NCI, 2024)

Tested on: 188146-221-R-J1-PDC complex spheroid viability
Assay: Anticancer human tumor 188146-221-R-J1-PDC patient-derived colon adenocarcinoma cell line growth inhibition [POLQ]
Details: for IC50: curve of first compound; for viability, T/C: stronger effect = lower value; active = viability on the fitted dose curve at most 10% of control; inactive = the rest
In short: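 PDC + HUVEC + MSC complex spheroids; POLQ inhibitors ± partner drugs; top conc. at/near clinical Cmax, else 10 microM (SN-38 1 microM), half-log dilutions; 37 degrees C, 5% CO2.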

[1] = second compound 0.0316 µM, first compound 0.0316 µM
[2] = second compound 0.0316 µM, first compound 0.1 µM
[3] = second compound 0.0316 µM, first compound 0.316 µM
[4] = second compound 0.0316 µM, first compound 1 µM
[5] = second compound 0.1 µM, first compound 0.0316 µM
[6] = second compound 0.1 µM, first compound 0.1 µM
[7] = second compound 0.1 µM, first compound 0.316 µM
[8] = second compound 0.1 µM, first compound 1 µM
[9] = second compound 0.316 µM, first compound 0.0316 µM
[10] = second compound 0.316 µM, first compound 0.1 µM
[11] = second compound 0.316 µM, first compound 0.316 µM
[12] = second compound 0.316 µM, first compound 1 µM
[13] = second compound 1 µM, first compound 0.0316 µM
[14] = second compound 1 µM, first compound 0.1 µM
[15] = second compound 1 µM, first compound 0.316 µM
[16] = second compound 1 µM, first compound 1 µM
[17] = second compound 3.16 µM, first compound 0.0316 µM
[18] = second compound 3.16 µM, first compound 0.1 µM
[19] = second compound 3.16 µM, first compound 0.316 µM
[20] = second compound 3.16 µM, first compound 1 µM
[21] = second compound 10 µM, first compound 0.0316 µM
[22] = second compound 10 µM, first compound 0.1 µM
[23] = second compound 10 µM, first compound 0.316 µM
[24] = second compound 10 µM, first compound 1 µM
[25] = second compound 0.0316 µM, first compound 3.16 µM
[26] = second compound 0.0316 µM, first compound 10 µM
[27] = second compound 0.1 µM, first compound 3.16 µM
[28] = second compound 0.1 µM, first compound 10 µM
[29] = second compound 0.316 µM, first compound 3.16 µM
[30] = second compound 0.316 µM, first compound 10 µM
[31] = second compound 1 µM, first compound 3.16 µM
[32] = second compound 1 µM, first compound 10 µM
[33] = second compound 3.16 µM, first compound 3.16 µM
[34] = second compound 3.16 µM, first compound 10 µM
[35] = second compound 10 µM, first compound 3.16 µM
[36] = second compound 10 µM, first compound 10 µM
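Also: spheroids exposed to compounds for seven days.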
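For viability, T/C in this document: 100% = DMSO vehicle control viability.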

CCc1c2c(nc3ccc(O)cc13)-c1cc3c(c(=O)n1C2)COC(=O)[C@]3(O)CC + COC1C(OC(N)=O)C(O)C(Oc2ccc3c(O)c(NC(=O)c4ccc(O)c(CC=C(C)C)c4)c(=O)oc3c2C)OC1(C)C
26.8 nM: IC50 (second compound 0.1 µM)
25.9 nM: IC50 (second compound 0.0316 µM)
21.1 nM: IC50 (second compound 3.16 µM)
27 nM: IC50 (second compound 1 µM)
24 nM: IC50 (second compound 0.316 µM)
13.2 nM: IC50 (second compound 10 µM)
active: viability, T/C [4] 7.12% | viability, T/C [7] 8.86% | viability, T/C [8] 6.83% | viability, T/C [19] 10.9% | viability, T/C [20] 6.97% | viability, T/C [24] 9.35%
inactive: viability, T/C (second compound 0.0316 µM, first compound 0.00316 µM) 96.6% | viability, T/C (second compound 0.0316 µM, first compound 0.01 µM) 83.1% | viability, T/C [1] 41% | viability, T/C [2] 20.6% | viability, T/C [3] 10.8% | viability, T/C (second compound 0.1 µM, first compound 0.00316 µM) 95.7% | viability, T/C (second compound 0.1 µM, first compound 0.01 µM) 88% | viability, T/C [5] 42.5% | viability, T/C [6] 16.8% | viability, T/C (second compound 0.316 µM, first compound 0.00316 µM) 87.1% | viability, T/C (second compound 0.316 µM, first compound 0.01 µM) 88.6% | viability, T/C [9] 38% | viability, T/C [10] 14.2% | viability, T/C [11] 9.57% | viability, T/C [12] 7.85% | viability, T/C (second compound 1 µM, first compound 0.00316 µM) 93.5% | viability, T/C (second compound 1 µM, first compound 0.01 µM) 91.2% | viability, T/C [13] 42.9% | viability, T/C [14] 16.6% | viability, T/C [15] 11% | viability, T/C [16] 7.07% | viability, T/C (second compound 3.16 µM, first compound 0.00316 µM) 94.3% | viability, T/C (second compound 3.16 µM, first compound 0.01 µM) 79% | viability, T/C [17] 34% | viability, T/C [18] 13.3% | viability, T/C (second compound 10 µM, first compound 0.00316 µM) 95.5% | viability, T/C (second compound 10 µM, first compound 0.01 µM) 56.7% | viability, T/C [21] 28.6% | viability, T/C [22] 14.9% | viability, T/C [23] 9.1%

O=c1[nH]cc(F)c(=O)[nH]1 + COC1C(OC(N)=O)C(O)C(Oc2ccc3c(O)c(NC(=O)c4ccc(O)c(CC=C(C)C)c4)c(=O)oc3c2C)OC1(C)C
1240 nM: IC50 (second compound 0.1 µM)
1010 nM: IC50 (second compound 0.0316 µM)
1500 nM: IC50 (second compound 10 µM)
925 nM: IC50 (second compound 0.316 µM)
1790 nM: IC50 (second compound 3.16 µM)
984 nM: IC50 (second compound 1 µM)
inactive: viability, T/C [1] 107% | viability, T/C [2] 106% | viability, T/C [3] 72.7% | viability, T/C [4] 53.1% | viability, T/C [25] 39.8% | viability, T/C [26] 34.9% | viability, T/C [5] 95.2% | viability, T/C [6] 102% | viability, T/C [7] 75.4% | viability, T/C [8] 53.7% | viability, T/C [27] 41.4% | viability, T/C [28] 35% | viability, T/C [9] 95.8% | viability, T/C [10] 98.5% | viability, T/C [11] 75.4% | viability, T/C [12] 49.3% | viability, T/C [29] 37.6% | viability, T/C [30] 36.6% | viability, T/C [13] 111% | viability, T/C [14] 101% | viability, T/C [15] 72.4% | viability, T/C [16] 49.6% | viability, T/C [31] 43.8% | viability, T/C [32] 36% | viability, T/C [17] 102% | viability, T/C [18] 92.3% | viability, T/C [19] 76% | viability, T/C [20] 52.1% | viability, T/C [33] 49% | viability, T/C [34] 41.3% | viability, T/C [21] 97% | viability, T/C [22] 90.2% | viability, T/C [23] 80.7% | viability, T/C [24] 53.3% | viability, T/C [35] 43.2% | viability, T/C [36] 40.6%

COc1cc2cc(C(=O)CCC(=O)O)sc2cc1OC + Nc1ccc(C#CCN(C(=O)Cc2ncc(C(F)(F)F)cc2C(F)(F)F)c2ccc(F)cc2)nn1
> 10000 nM: IC50 (second compound 0.0316 µM) | IC50 (second compound 0.1 µM) | IC50 (second compound 0.316 µM) | IC50 (second compound 1 µM) | IC50 (second compound 3.16 µM) | IC50 (second compound 10 µM)
inactive: viability, T/C [1] 115% | viability, T/C [2] 102% | viability, T/C [3] 96.4% | viability, T/C [4] 119% | viability, T/C [25] 90.2% | viability, T/C [26] 105% | viability, T/C [5] 105% | viability, T/C [6] 115% | viability, T/C [7] 107% | viability, T/C [8] 96.2% | viability, T/C [27] 118% | viability, T/C [28] 102% | viability, T/C [9] 109% | viability, T/C [10] 100% | viability, T/C [11] 89.3% | viability, T/C [12] 107% | viability, T/C [29] 107% | viability, T/C [30] 97.4% | viability, T/C [13] 117% | viability, T/C [14] 116% | viability, T/C [15] 106% | viability, T/C [16] 96.3% | viability, T/C [31] 104% | viability, T/C [32] 102% | viability, T/C [17] 105% | viability, T/C [18] 114% | viability, T/C [19] 96.8% | viability, T/C [20] 119% | viability, T/C [33] 109% | viability, T/C [34] 118% | viability, T/C [21] 101% | viability, T/C [22] 130% | viability, T/C [23] 98.5% | viability, T/C [24] 113% | viability, T/C [35] 104% | viability, T/C [36] 120%
